Experimental data taken from ChEMBL document CHEMBL5579854, “Targeting Relevant HDACs to Support the Survival of Cone Photoreceptors in Inherited Retinal Diseases: Identification of a Potent Pharmacological Tool with In Vitro and In Vivo Efficacy” (J Med Chem, 2024).
The source made the active and inactive calls. No cut-off for these calls is given here.

Experiments:
[1] = Inhibition of CYP1A in mouse liver microsomes using ECOD at 1 to 50 uM measured upto 30 mins by fluorescence based assay; format: ADME, Microsome; details: 0.5 h, dose 1-50 µM
Cytochrome P450 1A = biological target: T1, Cytochrome P450 1A (Homo sapiens, UniProt P04798+P05177); assay: Inhibition of CYP1A in human liver microsomes using ECOD at 1 to 50 uM measured upto 30 mins by fluorescence based assay; format: ADME, Microsome; details: 0.5 h, dose 1-50 µM
T1 sequence (P04798 whole entry): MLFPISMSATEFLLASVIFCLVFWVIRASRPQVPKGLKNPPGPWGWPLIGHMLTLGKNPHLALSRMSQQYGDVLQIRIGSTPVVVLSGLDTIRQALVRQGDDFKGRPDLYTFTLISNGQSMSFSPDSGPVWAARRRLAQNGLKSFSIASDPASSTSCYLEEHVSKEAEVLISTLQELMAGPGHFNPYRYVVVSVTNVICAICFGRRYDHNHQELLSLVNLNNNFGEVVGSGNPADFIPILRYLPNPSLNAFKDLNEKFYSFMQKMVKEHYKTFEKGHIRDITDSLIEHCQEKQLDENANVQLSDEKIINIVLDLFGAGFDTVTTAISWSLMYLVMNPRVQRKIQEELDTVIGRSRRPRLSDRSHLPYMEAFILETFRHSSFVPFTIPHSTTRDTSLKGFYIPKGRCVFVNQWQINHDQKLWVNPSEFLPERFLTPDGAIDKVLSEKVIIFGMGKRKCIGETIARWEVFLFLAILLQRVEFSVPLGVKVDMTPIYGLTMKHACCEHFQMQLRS
T1 sequence (P05177 whole entry): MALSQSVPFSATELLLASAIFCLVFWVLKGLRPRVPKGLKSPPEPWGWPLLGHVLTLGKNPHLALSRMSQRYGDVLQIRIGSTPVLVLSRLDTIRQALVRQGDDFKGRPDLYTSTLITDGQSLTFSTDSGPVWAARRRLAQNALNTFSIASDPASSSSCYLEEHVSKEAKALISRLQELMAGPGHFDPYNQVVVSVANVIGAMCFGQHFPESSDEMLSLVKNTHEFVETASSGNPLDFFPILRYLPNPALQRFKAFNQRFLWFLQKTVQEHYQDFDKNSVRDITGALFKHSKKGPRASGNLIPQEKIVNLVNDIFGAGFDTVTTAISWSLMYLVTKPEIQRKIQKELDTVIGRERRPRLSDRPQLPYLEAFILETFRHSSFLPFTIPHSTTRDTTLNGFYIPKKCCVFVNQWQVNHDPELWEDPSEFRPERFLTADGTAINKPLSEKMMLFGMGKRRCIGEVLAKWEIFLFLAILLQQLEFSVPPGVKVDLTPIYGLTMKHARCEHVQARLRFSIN

[2] = Inhibition of CYP in mouse liver microsomes using ECOD at 1 to 50 uM measured upto 30 mins by fluorescence based assay; format: ADME, Microsome; details: 0.5 h, dose 1-50 µM
[3] = Toxicity in zebrafish larval dye model harboring atp6v0e1/ucd6 assessed as morphological change in eye at 80 to 100 uM treated for 2 days by toluidine blue staining based analysis; format: tissue-based, Danio rerio; details: in vivo, 48 h, dose 80-100 µM, time 2 day
Mus musculus [4] = assay: Upregulation of GNAT1 mRNA level in eyes of C57BL/6J mouse model harboring rd10 mutant at 5 to 30 uM, IVT administered bilaterally measured after 5 days by RT-PCR analysis; format: functional, tissue-based; details: Eye, dose 5-30 µM, time 5.0 day
Mus musculus [5] = assay: Upregulation of ARR3 mRNA level in eyes of C57BL/6J mouse model harboring rd10 mutant at 5 to 30 uM, IVT administered bilaterally measured after 5 days by RT-PCR analysis; format: functional, tissue-based; details: Eye, dose 5-30 µM, time 5.0 day
661W [6] = assay: Cytoprotective effect against H2O2-induced oxidative stress in mouse 661W cells assessed as increase in acetylated alpha-tubulin level at 10 to 30 uM incubated for 24 hrs followed by H2O2 treatment for 3 hrs by immunofluorescence analysis; format: functional, cell-based; details: dose 10-30 µM, time 27.0 hrs
661W [7] = assay: Cytoprotective effect against H2O2-induced oxidative stress in mouse 661W cells assessed as increase in acetylated histone H3 level at 5 uM incubated for 24 hrs followed by H2O2 treatment for 3 hrs by Western blot analysis; format: functional, cell-based; details: time 27.0 hrs
661W [8] = assay: Cytoprotective effect against H2O2-induced oxidative stress in mouse 661W cells assessed as increase in acetylated alpha-tubulin level incubated for 24 hrs followed by H2O2 treatment for 3 hrs by Western blot analysis; format: functional, cell-based; details: dose 10-30 µM, time 27.0 hrs

Question: Which “inhibition (INH)” value [1] does the source give for O=C(NO)c1ccc(CNC(=O)N2CCc3c(c4ccccc4n3Cc3ccccc3)C2)cc1 here?
Answer: Not Active

Question: What about the “inhibition (INH)” value (Cytochrome P450 1A) of the same compound?
Answer: Not Active

Question: And the “inhibition (INH)” value [2]?
Answer: Not Active

Question: And the Activity [3]?
Answer: Non-Toxic

Question: What about the Activity (Mus musculus [4]) of the same compound?
Answer: Active

Question: What about the Activity (Mus musculus [5]) of the same compound?
Answer: Active

Question: And the Activity (661W [6])?
Answer: Active

Question: What about the Activity (661W [7]) of the same compound?
Answer: Active

Question: What about the Activity (661W [8]) of the same compound?
Answer: Dose-Dependent Effect
